Measurements reported in patent US6372897B1, “Mimotopic polypeptides of toxoplasma gondii and applications” (priority 1995, dated 2002).
Ends that are not written are not given here.

Key:
[1] = tested on: anti-P30 monoclonal antibody 1E1E7; assay: Spotscan overlapping pentadecapeptides on cellulose membrane, immunoreactivity with 1E1E7; format: binding, mouse; conditions: 1E1E7 60 nM
Description: According to the “Spotscan” technique, the synthesis of the peptides is carried out on cellulose membranes (Cambridge Research Biochemicals). The principle of the method is the same as that for Pepscan. The esterified amino acids are solubilized in N-methylpyrrolidone (NMP) at the concentration of […] and 0.9 μl are deposited at the level of spots for the deposition of bromophenol blue. After a 15 minute incubation, another deposition of amino acids is carried out followed by another 15 minute incubation. If the coupling between the two amino acids is carried out correctly, a change in color is observed (passage from blue to yellowish green). After three washes in DMF, an acetylation step is carried out with acetic anhydride. Then the terminal amino groups of the peptides being synthesized are deprotected with 20% piperidine in DMF. The deposition spots are restained with a 1% bromophenol blue solution in DMF, washed three times with methanol and dried. These operations as a whole constitute a cycle for addition of an amino acid and this cycle is repeated up to the end of the synthesis. When all the amino acids have been added, the NH2-terminal group of the last amino acid is deprotected with 20% piperidine in DMF and is acetylated with acetic anhydride. The side chain protecting groups are removed by a dichloromethane:trifluoroacetic acid:triisobutylsilane mixture (5 ml:5 ml:250 μl). The immunoreactivity of the peptides thus synthesized can then be tested by ELISA.
In order to reproduce the entire pentadecapeptide included in the phage clone isolated and to determine the possible role of the contiguous amino acids belonging to the sequence of the PIII protein of the phage (see Example 1), the chemical synthesis of overlapping pentadecapeptides, which cover the sequence […](SEQ ID No.59), was carried out on an activated cellulose membrane (“Spotscan”).
After synthesis of the various pentadecapeptides, the membrane is rinsed with methanol, washed in TBS (0.1M Tris, pH 7.2) and then incubated overnight at room temperature in saturation buffer (marketed by Cambridge Research Biochemicals). After several washes with TBS-T (0.1M Tris, pH 7.2-0.05% Tween 20), the membrane is brought into contact with a solution of anti-P30 monoclonal antibody 1E1E7 (60 nM) and incubated for 4 hours at room temperature. After three washes with TBS-T, the anti-mouse immunoglobulin conjugate labeled with galactosidase (marketed by Cambridge Research Biochemicals) is added at a 1/200 dilution and the whole is incubated for two hours at room temperature. After several washes of the membrane with PBS-Tween 0.05% and PBS, the immunoreactivity at the level of the various spots is visualized by adding a solution of substrate (5-bromo-4-chloro-3-indoyl-D-galactopyranoside in PBS containing magnesium chloride and potassium ferricyanide) and incubating for 10 to 40 minutes. The color of the spots is assessed qualitatively.

[2] = target: phage clone displaying the pentadecapeptide Trp-His-Trp-Arg-His-Arg-Ile-Pro-Leu-Gln-Leu-Ala-Ala-Gly-Arg (SEQ ID No.48) fused in the PIII protein (filamentous phage); assay: phage ELISA, phages captured by anti-M13 antibodies, 1E1E7 at 3 nM
[3] = target: T1, phage clone identified (SEQ ID No.48) (Enterobacteria phage fd, UniProt P03661); assay: ELISA: inhibition by human serum of the attachment of monoclonal antibody 1E1E7 to the phage clone; format: binding; conditions: phages containing the sequence
T1 construct: made in house; host or cells: E. coli (K19Kan), phage amplification
Description: The ELISA test was carried out as described in Example 2 with the following modifications: 100 μl of various dilutions of human serum of a patient infected with Toxoplasma gondii (positive serum—reference G8) are brought into contact with the. phage clone identified, immobilized as described in Example 2, for 30 minutes at 37° C. After two washes with TBS/Tween 0.05%, 100 μl of monoclonal antibody 1E1E7 at the concentration of 6 nM are added and incubated overnight at 4° C. After four washes with TBS/Tween, 100 μl of anti-mouse conjugate labeled with peroxidase are added and then incubated for one hour at 37° C. The enzymatic reaction for visualization was carried out by adding 100 μl of an H2O2/orthophenylenediamine (OPD) solution and incubating the sample for 30 minutes at room temperature. The staining reaction is stopped by adding 50 μl of 1.8N sulfuric acid. The optical density is measured on a BioMé rieux plate reader at 492 nm. Moreover, a control was produced, under the same reaction conditions but with a human serum not infected with Toxoplasma gondii (negative serum), in order to ensure that the phage clone identified reacts specifically with the human serum of a patient infected with Toxoplasma gondii.

[4] = tested on: anti-P30 monoclonal antibody 1E1E7; assay: Competition ELISA: inhibition by native P30 protein of the ELISA response of the phage clone; format: binding, mouse; conditions: phage clone SEQ ID No.48
Description: A competition ELISA test was carried out in order to determine if the response obtained with the phage clone identified is inhibited by pre-incubation of the anti-P30 monoclonal antibody 1E1E7 with the P30 protein.
The ELISA test is carried out as described in Example 2 with the following modifications: the monoclonal antibody 1E1E7 (at the concentration of 6 nM) is preincubated with various concentrations of P30 protein for 20 minutes at 37° C. and then the mixture is added to the wells of the ELISA plate in which the phages corresponding to the pentadecapeptide Trp-His-Trp-Arg-His-Arg-Ile-Pro-Leu-Gln-Leu-Ala-Ala-Gly-Arg (SEQ ID No.48) are attached.

Molecule | Color of the spots (immunoreactivity), assessed qualitatively [1] | also measured
HRIPLQLAAGRGAAG [SEQ ID No.9] | maximum | –
PLQLAAGRGAAGAET [SEQ ID No.34] | disappears completely | –
IPLQLAAGRGAAGAE [SEQ ID No.33] | very slight color | –
anti-P30 monoclonal antibody 1E1E7 (BioMerieux) | – | OD (492 nm) [2]: 0.269 to 0.274 OD 492 nm
WHWRHRIPLQLAAGR [SEQ ID No.48] | – | Recognition by the antibodies present in the sera of patients infected with Toxoplasma gondii [3]: indeed recognized
SADGAWHWRHRIPLQ [SEQ ID No.231] | a first color | –
RIPLQLAAGRGAAGA [SEQ ID No.32] | maximum | –
P30 protein: the Toxoplasma gondii major antigen, peptide sequence identified by SEQ ID No.1 (protein) MSVSLHHFIISSGFLTSMFPKAVRRAVTAGVFAAPTLMSFLRCGVMASDPPLVANQVVTCPDKKSTAAVILTPTENHFTLKCPKTALTEPPTLAYSPNRQICPAGTTSSCTSKAVTLSSLIPEAEDSWWTGDSASLDTAGIKLTVPIEKFPVTTQTFVVGCIKGDDAQSCMVTVTVQARASSVVNNVARCSYGADSTLGPVKLSAEGPTTMTLVCGKDGVKVPQDNNQYCSGTTLTGCNEKSFKDILPKLTENPWQGNASSDKGATLTINKEAFPAESKSVIIGCTGGSPEKHHCTVKLEFAGAAGSAKSSAGTASHVSIFAMVTGLIGSIAACVA | – | Inhibition of the ELISA response ([4]; P30 protein 35 ng/ml preincubated with 6 nM 1E1E7): 45%; Inhibition of the ELISA response ([4]; P30 protein 3.5 μg/ml preincubated with 6 nM 1E1E7): 80%
